45 sequences from paper PMC10065799, “High-throughput profiling of sequence recognition by tyrosine kinases and SH2 domains using bacterial peptide display” (eLife, 2023) can be followed below.

What all share (assay): pTyr-Var library bacterial peptide display kinase screen (enrichment scores)
One assay addresses c-Src kinase domain (Homo sapiens, UniProt P12931). In kind it is biochemical. Particulars: sheet "Src".
The next assay concerns EPHB2 kinase domain. In kind it is biochemical, human. Particulars: sheet EPHB2.
The test system of the next assay is EPHB1 kinase domain. In kind it is biochemical, human. Particulars: for Screen (variant relative to reference peptide, measured in the pTyr-Var library screen): sheet "EPHB1", variant seq vs reference seq, bacterial peptide display enrichment; for Screen: sheet EPHB1, effect of the variant peptide relative to its reference peptide in the pTyr-Var library screen (enrichment scores).

Another assay concerns the target T1, c-Abl kinase domain (Mus musculus, UniProt P00520).
T1 sequence (P00520 242-493 limits assumed): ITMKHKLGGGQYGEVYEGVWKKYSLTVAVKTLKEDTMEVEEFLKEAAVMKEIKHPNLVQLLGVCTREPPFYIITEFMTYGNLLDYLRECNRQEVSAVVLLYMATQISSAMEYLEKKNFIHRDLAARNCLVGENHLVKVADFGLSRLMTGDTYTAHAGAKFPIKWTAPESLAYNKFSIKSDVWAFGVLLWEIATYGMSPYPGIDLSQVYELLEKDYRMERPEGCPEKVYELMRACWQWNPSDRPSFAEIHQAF
The assay is classed as biochemical.

The next assay deals with Fer kinase domain. The assay is classed as biochemical, mouse. Particulars: sheet "Fer".
Setting [1] is: variant peptide versus its reference peptide in the pTyr-Var library screen.
[2] abbreviates: effect of variant peptide relative to its reference peptide in the pTyr-Var library screen (enrichment scores).
Setting [3] is: effect of the variant relative to its reference peptide in the pTyr-Var library screen.
Setting [4] is: sheet "Abl", effect of variant peptide relative to its reference peptide in pTyr-Var library screen (enrichment).
[5] abbreviates: value of the variant peptide against its reference peptide in the pTyr-Var library screen with Fer.
[6] abbreviates: fig5-data2, sheet "Abl", Screen for the variant/reference peptide pair, pTyr-Var library.
Where [7] appears, read: effect of the variant peptide relative to its reference peptide in the pTyr-Var library screen.
The mark [8] stands for this setting: variant peptide relative to its reference peptide, pTyr-Var library screen enrichment.

As to ADARMYGDLPW [PLP1_Y207_V209D], the figures for the Screen on c-Src kinase domain (setting [1]) and with EPHB2 kinase domain (setting [2]) were -1.273 and -2.321, respectively.

In the case of ADARMYGVLLW [PLP1_Y207_P211L], the Screen is -0.7224 at c-Src kinase domain (setting [1]) and -1.961 in the assay on EPHB2 kinase domain (setting [2]).

In turn, ADELEYSRTGL [MMUT_Y287_G284E] displayed a Screen in the assay on EPHB2 kinase domain (setting [2]) of -1.178.

As for ADGLEYSRTEL [MMUT_Y287_G291E], the Screen in the assay with EPHB2 kinase domain (setting [2]) is listed as -1.172.

Turning to ATKNDYWAMLA [WWOX_Y287_P282A], the “Screen (variant relative to reference peptide, measured in the pTyr-Var library screen)” value with EPHB1 kinase domain is given as -0.006784. The Screen in the assay with EPHB2 kinase domain (setting [3]) was -0.4918; on c-Abl kinase domain (setting [4]), -2.008.

In turn, CPFNLYAEQFS [HGD_Y40_L44F_YF] showed a Screen with EPHB1 kinase domain of 0.9285.

With EEQFFYEKAIL [BCCIP_Y257_E254Q], the Screen is recorded as -0.4348 in the assay on Fer kinase domain (setting [5]) and 0.5588 at c-Abl kinase domain (setting [6]).

Turning to EVEPTYVVLFD [ERCC4_Y577_R576T_YF], the figures for the Screen in the assay with EPHB1 kinase domain, at c-Src kinase domain (setting [7]) and with EPHB2 kinase domain (setting [2]) were 1.659, 2.973 and 2.191, respectively.

Take FCRITYDIFPF [INTS13_Y67_M66T_YF]: the Screen was -0.0851 with EPHB1 kinase domain, -0.3434 on c-Src kinase domain (setting [7]), 0.3565 with EPHB2 kinase domain (setting [2]) and 1.32 at c-Abl kinase domain (setting [6]).

Regarding FEDTLYTVLHR [UNC13D_Y61_A59T_YF], the “Screen (variant relative to reference peptide, measured in the pTyr-Var library screen)” value in the assay on EPHB1 kinase domain is -0.7483. For the same sequence, the Screen was -0.9596 in the assay with Fer kinase domain (setting [8]), -0.1643 on c-Src kinase domain (setting [1]) and -1.461 in the assay on EPHB2 kinase domain (setting [3]).

For FPLELYERVRI [PRKCG_Y312_M317I_YF], the Screen in the assay with EPHB1 kinase domain was -0.1732; with Fer kinase domain (setting [5]), 0.4614; at c-Abl kinase domain (setting [6]) it was 2.263.

Turning to FQEPVYSVAFS [TBL1X_Y509_H504Y_YF], the “Screen (variant relative to reference peptide, measured in the pTyr-Var library screen)” value in the assay with EPHB1 kinase domain is -0.4923. Further, the values for the Screen in the assay with Fer kinase domain (setting [8]), at c-Src kinase domain (setting [1]) and in the assay on EPHB2 kinase domain (setting [2]) were -0.4973, -0.2752 and -0.3359, respectively.

For the sequence GHEFIYVDRMQ [PDGFRB_Y581_P584R_YF], the Screen with EPHB1 kinase domain was -3.432; with Fer kinase domain (setting [5]), -2.31; at c-Src kinase domain (setting [1]) it was -0.3711; in the assay with EPHB2 kinase domain (setting [2]), -3.317.

With GREFIYVDPMQ [PDGFRA_Y574_H570R_YF], the Screen with EPHB1 kinase domain was -0.6275; in the assay on Fer kinase domain (setting [5]), -1.733; at c-Src kinase domain (setting [1]) it was -0.9351; in the assay with EPHB2 kinase domain (setting [2]) it was -0.4123.

For GRIHSYRGHLW [VHL_Y112_R107G], the “Screen (variant relative to reference peptide, measured in the pTyr-Var library screen)” value with EPHB1 kinase domain is -1.934. Moreover, the Screen at c-Src kinase domain (setting [1]) is reported as -3.383.

In turn, HHIDFYKETTN [FGFR1_Y654_K656E_YF] registered a Screen with EPHB2 kinase domain (setting [2]) of 2.27.

Turning to HNLNFYKKTTN [FGFR3_Y648_D646N_YF], the Screen is -1.233 in the assay with EPHB1 kinase domain, -1.085 with Fer kinase domain (setting [5]), -1.956 at c-Src kinase domain (setting [7]) and -1.314 with EPHB2 kinase domain (setting [2]).

HSSPVYVGRVV [TGM2_Y219_R214H]: the “Screen (variant relative to reference peptide, measured in the pTyr-Var library screen)” value in the assay on EPHB1 kinase domain worked out at 1.553. Besides, the Screen is listed as 0.4894 with Fer kinase domain (setting [8]) and 0.1113 on c-Src kinase domain (setting [1]).

Sequence HSVLNYGVCVC [JAK2_Y613_L609S] came in with a Screen with EPHB1 kinase domain of -0.7312.

As for IFLGAYDRFLP [SLC22A5_Y486_V481I_YF], the Screen at c-Src kinase domain (setting [1]) is -0.1658; in the assay on EPHB2 kinase domain (setting [2]), -0.2361.

On to IVEELYAIPPD [PEAK1_Y797_S792I], for which the Screen is listed as 0.4436 with EPHB1 kinase domain, 0.2222 with Fer kinase domain (setting [5]), -0.02431 at c-Src kinase domain (setting [1]) and -0.0205 in the assay on EPHB2 kinase domain (setting [2]).

KGEDFYCVTFH [FHL1_Y149_C153Y_YF]: the Screen is recorded as 1.626 in the assay with Fer kinase domain (setting [5]) and -1.856 at c-Abl kinase domain (setting [6]).

Regarding KKHIPYKEHKS [CSNK1G1_Y205_R206K], the Screen is -0.623 in the assay with EPHB1 kinase domain and -0.8729 in the assay with Fer kinase domain (setting [5]).

Consider KNEIFYQCPDQ [FBXO3_Y223_V221I], for which the Screen in the assay on Fer kinase domain (setting [5]) is listed as -0.5331; in the assay with EPHB2 kinase domain (setting [2]), -0.9058.

Take KSNSDYVDVLP [SH2D1B_Y127_N122K]: the “Screen (variant relative to reference peptide, measured in the pTyr-Var library screen)” value in the assay with EPHB1 kinase domain is reported as -0.2971. In the assay on EPHB2 kinase domain (setting [2]), this sequence yielded a Screen of -0.9717.

Turning to LANNEYFFQVC [TTN_Y18997_R19000Q_YF], the “Screen (variant relative to reference peptide, measured in the pTyr-Var library screen)” value in the assay with EPHB1 kinase domain was 1.182.

As to LEHCQYVTQKV [ALDOB_Y204_E207Q], the Screen in the assay with EPHB1 kinase domain was -0.6551; in the assay on Fer kinase domain (setting [5]), -1.432; in the assay on EPHB2 kinase domain (setting [2]), -0.3412.

As to LFEDHYLLGTS [ASS1_Y87_R86H_YF], the Screen is reported as -1.664 in the assay with EPHB1 kinase domain and -0.9482 in the assay on EPHB2 kinase domain (setting [2]).

As to LSIQTYSALNF [DES_Y423_P419S], the Screen with EPHB1 kinase domain is given as -1.829; in the assay with Fer kinase domain (setting [5]), -2.047; at c-Src kinase domain (setting [7]), -0.607; with EPHB2 kinase domain (setting [2]) it was -1.403.

For MGSFNYLGFPR [SPTLC2_Y178_A182P_YF], the “Screen (variant relative to reference peptide, measured in the pTyr-Var library screen)” value in the assay with EPHB1 kinase domain is recorded as 0.8704.

Turning to MKNDLYQTPLH [NFKB1_Y582_R578K], the Screen in the assay with Fer kinase domain (setting [5]) is given as -0.9562; at c-Src kinase domain (setting [1]), -0.3133; in the assay with EPHB2 kinase domain (setting [2]) it was -1.089.

As for PAGSGYPAFLG [ATP6V1A_Y374_D371G_YF], in the assay with EPHB1 kinase domain, the Screen is given as -1.134.

For PEADKYHLTFA [FGG_Y300_R301H_YF], in the assay with EPHB1 kinase domain, the Screen was 0.9471.

As for PHQTIYGALMI [FGF23_Y70_S71G], the Screen in the assay with EPHB1 kinase domain is given as -3.192; in the assay with Fer kinase domain (setting [5]), -2.622; on c-Src kinase domain (setting [7]) it was -0.7948; in the assay on EPHB2 kinase domain (setting [2]) it was -2.622.

Take QEGPEYWDLET [HLA-A_Y83_Q86L]: the Screen with EPHB1 kinase domain was determined as 0.9985.

Take QNTGVYFDLFG [PTPN11_Y62_D61V_YF]: the Screen was -3.507 with EPHB1 kinase domain, 0.4058 on c-Src kinase domain (setting [1]), -4.12 in the assay with EPHB2 kinase domain (setting [2]) and 0.3099 at c-Abl kinase domain (setting [6]).

Take QSSALYEDCFL [ASS1_Y83_R86C_YF]: the Screen was determined as 1.322 in the assay with EPHB1 kinase domain, 0.6979 in the assay on Fer kinase domain (setting [5]), 1.263 at c-Src kinase domain (setting [7]) and 1.929 in the assay on EPHB2 kinase domain (setting [2]).

Take REHTVYWEPRK [MAGEA4_Y240_G241W]: the Screen with EPHB1 kinase domain was 3.741; at c-Src kinase domain (setting [7]) it was 1.621.

Consider RRIHCYRGHLW [VHL_Y112_S111C], for which the “Screen (variant relative to reference peptide, measured in the pTyr-Var library screen)” value in the assay with EPHB1 kinase domain is -1.56. In addition, the Screen at c-Src kinase domain (setting [1]) was -2.571.

Take RRIHNYRGHLW [VHL_Y112_S111N]: the “Screen (variant relative to reference peptide, measured in the pTyr-Var library screen)” value with EPHB1 kinase domain is -1.094. Moreover, the Screen on c-Src kinase domain (setting [1]) is -2.675.

With SEEVNYATLTF [CLEC12B_Y7_T6N], the Screen was 0.955 with EPHB1 kinase domain, -0.6417 with Fer kinase domain (setting [5]), -1.881 at c-Src kinase domain (setting [7]) and 1.648 at c-Abl kinase domain (setting [6]).

For SISFDYCRVPM [BST2_Y8_T4I_YF], the Screen in the assay with EPHB1 kinase domain is reported as -2.179; in the assay with EPHB2 kinase domain (setting [2]) it was -2.162.

Regarding SVCPDYDLCSI [SQSTM1_Y148_V153I], the values for the Screen with Fer kinase domain (setting [8]) and at c-Abl kinase domain (setting [4]) were 0.6845 and -2.483, respectively.

VFPIDYFFPPQ [AR_Y552_L548F_YF] gave a Screen with EPHB2 kinase domain (setting [2]) of 0.813.

Take WSFNLYDINKD [KCNIP3_Y174_A170S]: the Screen with Fer kinase domain (setting [5]) is -0.8483; on c-Src kinase domain (setting [7]), -1.011; with EPHB2 kinase domain (setting [2]), -1.005.
